Results taken from PMC10801775 (The Journal of Pharmacology and Experimental Therapeutics, 2024).

Legend:
[1] = design: species or system Sprague-Dawley rats; settings: rat, in vivo
[2] = rat, in vivo

For CCOP(=O)(OCC)Oc1ccc([N+](=O)[O-])cc1 [POX, O,O-diethyl-O-p-nitrophenylphosphate], the “brain AUC as % of naïve” value [1] was over 80%, the “heart AUC restored, % of naïve AUC level” value [1] was 25% and the “liver AUC increase versus naïve” value [1] was 4 fold. The “lung AUC restored, % of naïve AUC level” value [1] was 50%, the “mean brain region radioactivity higher than naïve rats” value [1] was “up to 2 fold” and the “RBC fraction relative to naïve and 60-minute studies” value [2] was “about twice”. For the same compound, the “RBC fraction, % of total radioactivity” value [2] was 20%, the “metabolite level in blood relative to naïve rats (or rats 60 minutes after POX)” value [2] was 5 fold and the “reduction of total percent radioactivity of plasma proteins” value [2] was about 20%.
